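Assay format: 96-well plates, 48-hour exposure. The concentration for full growth arrest is given as TGI.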
Legend:
Assay in all cases: growth of human tumour cells (NCI), 48 h
HCC-2998 colon = tested on: HCC-2998 colon
OVCAR-3 ovarian = tested on: OVCAR-3 ovarian
DMS 114 small cell lung = tested on: DMS 114 small cell lung
MALME-3M melanoma = tested on: MALME-3M melanoma
U251 CNS = tested on: U251 CNS
TK-10 renal = tested on: TK-10 renal
LOX IMVI melanoma = tested on: LOX IMVI melanoma
HOP-62 NSCLC = tested on: HOP-62 NSCLC
ACHN renal = tested on: ACHN renal
UACC-257 melanoma = tested on: UACC-257 melanoma
NCI-H460 lung = tested on: NCI-H460 lung
SNB-75 CNS = tested on: SNB-75 CNS
HCT-116 colon = tested on: HCT-116 colon
SK-OV-3 ovarian = tested on: SK-OV-3 ovarian
SK-MEL-2 melanoma = tested on: SK-MEL-2 melanoma
SR leukemia = tested on: SR leukemia
MOLT-4 leukemia = tested on: MOLT-4 leukemia
DLD-1 colon = tested on: DLD-1 colon
OVCAR-4 ovarian = tested on: OVCAR-4 ovarian
NCI-H522 lung = tested on: NCI-H522 lung
RXF-631 renal = tested on: RXF-631 renal
OVCAR-5 ovarian = tested on: OVCAR-5 ovarian
SNB-78 CNS = tested on: SNB-78 CNS
SNB-19 CNS = tested on: SNB-19 CNS
HCT-15 colon = tested on: HCT-15 colon
HL-60(TB) leukemia = tested on: HL-60(TB) leukemia
RXF 393 renal = tested on: RXF 393 renal
LXFL 529 NSCLC = tested on: LXFL 529 NSCLC
XF 498 CNS = tested on: XF 498 CNS
UO-31 renal = tested on: UO-31 renal
UACC-62 melanoma = tested on: UACC-62 melanoma
M14 melanoma = tested on: M14 melanoma
SF-539 CNS = tested on: SF-539 CNS
SF-268 CNS = tested on: SF-268 CNS
HT29 colon = tested on: HT29 colon
M19-MEL melanoma = tested on: M19-MEL melanoma
KM12 colon = tested on: KM12 colon
CCRF-CEM leukemia = tested on: CCRF-CEM leukemia
K-562 leukemia = tested on: K-562 leukemia
SK-MEL-28 melanoma = tested on: SK-MEL-28 melanoma
RPMI-8226 leukemia = tested on: RPMI-8226 leukemia
A498 renal = tested on: A498 renal
NCI-H23 lung = tested on: NCI-H23 lung
SN12C renal = tested on: SN12C renal
EKVX NSCLC = tested on: EKVX NSCLC
COLO 205 colon = tested on: COLO 205 colon
IGROV1 ovarian = tested on: IGROV1 ovarian
CAKI-1 renal = tested on: CAKI-1 renal
SK-MEL-5 melanoma = tested on: SK-MEL-5 melanoma
OVCAR-8 ovarian = tested on: OVCAR-8 ovarian
SW-620 colon = tested on: SW-620 colon
A549 NSCLC = tested on: A549 NSCLC
DMS 273 small cell lung = tested on: DMS 273 small cell lung
KM20L2 colon = tested on: KM20L2 colon
NCI-H226 lung = tested on: NCI-H226 lung
SF-295 CNS = tested on: SF-295 CNS
786-0 renal = tested on: 786-0 renal
HOP-92 NSCLC = tested on: HOP-92 NSCLC
HOP-18 NSCLC = tested on: HOP-18 NSCLC

Measured: TGI

Cc1cc(NS(=O)(=O)c2ccc(NC(=O)c3cccc4c(Nc5ccc(S(N)(=O)=O)cc5)c5ccccc5nc34)cc2)no1
> 100 µM: HCC-2998 colon | OVCAR-3 ovarian | DMS 114 small cell lung | MALME-3M melanoma | U251 CNS | TK-10 renal | LOX IMVI melanoma | HOP-62 NSCLC | ACHN renal | UACC-257 melanoma | NCI-H460 lung | SNB-75 CNS | HCT-116 colon | SK-OV-3 ovarian | SK-MEL-2 melanoma | SR leukemia | MOLT-4 leukemia | DLD-1 colon | OVCAR-4 ovarian | NCI-H522 lung | RXF-631 renal | OVCAR-5 ovarian | SNB-78 CNS | SNB-19 CNS | HCT-15 colon | HL-60(TB) leukemia | RXF 393 renal | LXFL 529 NSCLC | XF 498 CNS | UO-31 renal | UACC-62 melanoma | M14 melanoma | SF-539 CNS | SF-268 CNS | HT29 colon | M19-MEL melanoma | KM12 colon | CCRF-CEM leukemia | K-562 leukemia | SK-MEL-28 melanoma | RPMI-8226 leukemia | A498 renal | NCI-H23 lung | SN12C renal | EKVX NSCLC

CC1=C(CC2C(=O)N(c3ccccc3)S(=O)(=O)NC2C)C(=O)N(c2ccccc2)S(=O)(=O)N1C (stereo not given)
> 100 µM: HCC-2998 colon | OVCAR-3 ovarian | DMS 114 small cell lung | MALME-3M melanoma | TK-10 renal | LOX IMVI melanoma | HOP-62 NSCLC | ACHN renal | COLO 205 colon | NCI-H460 lung | SNB-75 CNS | HCT-116 colon | IGROV1 ovarian | SK-OV-3 ovarian | SK-MEL-2 melanoma | CAKI-1 renal | SR leukemia | SK-MEL-5 melanoma | OVCAR-8 ovarian | MOLT-4 leukemia | DLD-1 colon | SW-620 colon | OVCAR-4 ovarian | NCI-H522 lung | RXF-631 renal | OVCAR-5 ovarian | SNB-78 CNS | SNB-19 CNS | HCT-15 colon | A549 NSCLC | LXFL 529 NSCLC | XF 498 CNS | UO-31 renal | UACC-62 melanoma | M14 melanoma | DMS 273 small cell lung | KM20L2 colon | SF-539 CNS | SF-268 CNS | HT29 colon | M19-MEL melanoma | KM12 colon | NCI-H226 lung | CCRF-CEM leukemia | SF-295 CNS | K-562 leukemia | SK-MEL-28 melanoma | 786-0 renal | RPMI-8226 leukemia | NCI-H23 lung | HOP-92 NSCLC | SN12C renal | EKVX NSCLC

Cc1ccc(NC(=O)C(=O)C(C(=O)/C=C/c2ccccc2)C2OC(=O)c3ccccc32)c(C)c1 (stereo not given)
> 100 µM: HCC-2998 colon | OVCAR-3 ovarian | DMS 114 small cell lung | MALME-3M melanoma | U251 CNS | TK-10 renal | LOX IMVI melanoma | HOP-62 NSCLC | ACHN renal | UACC-257 melanoma | COLO 205 colon | NCI-H460 lung | SNB-75 CNS | HCT-116 colon | IGROV1 ovarian | SK-OV-3 ovarian | CAKI-1 renal | SR leukemia | SK-MEL-5 melanoma | MOLT-4 leukemia | DLD-1 colon | SW-620 colon | OVCAR-4 ovarian | NCI-H522 lung | RXF-631 renal | OVCAR-5 ovarian | SNB-78 CNS | SNB-19 CNS | HCT-15 colon | HL-60(TB) leukemia | A549 NSCLC | RXF 393 renal | LXFL 529 NSCLC | XF 498 CNS | UO-31 renal | UACC-62 melanoma | M14 melanoma | KM20L2 colon | SF-539 CNS | SF-268 CNS | HT29 colon | M19-MEL melanoma | KM12 colon | NCI-H226 lung | CCRF-CEM leukemia | SF-295 CNS | K-562 leukemia | SK-MEL-28 melanoma | 786-0 renal | RPMI-8226 leukemia | A498 renal | NCI-H23 lung | HOP-92 NSCLC | SN12C renal | EKVX NSCLC

COC(=O)C(C(=O)C(=O)Nc1ccc([N+](=O)[O-])cc1)c1nc2ccc([N+](=O)[O-])cc2[nH]c1=O (stereo not given)
> 100 µM: HCC-2998 colon | OVCAR-3 ovarian | DMS 114 small cell lung | MALME-3M melanoma | U251 CNS | TK-10 renal | LOX IMVI melanoma | HOP-62 NSCLC | ACHN renal | UACC-257 melanoma | COLO 205 colon | NCI-H460 lung | SNB-75 CNS | HCT-116 colon | IGROV1 ovarian | SK-OV-3 ovarian | SK-MEL-2 melanoma | CAKI-1 renal | SR leukemia | SK-MEL-5 melanoma | OVCAR-8 ovarian | MOLT-4 leukemia | DLD-1 colon | SW-620 colon | OVCAR-4 ovarian | NCI-H522 lung | RXF-631 renal | OVCAR-5 ovarian | SNB-78 CNS | SNB-19 CNS | HCT-15 colon | HL-60(TB) leukemia | A549 NSCLC | RXF 393 renal | LXFL 529 NSCLC | UO-31 renal | UACC-62 melanoma | M14 melanoma | DMS 273 small cell lung | KM20L2 colon | SF-539 CNS | SF-268 CNS | HT29 colon | M19-MEL melanoma | KM12 colon | NCI-H226 lung | CCRF-CEM leukemia | SF-295 CNS | K-562 leukemia | SK-MEL-28 melanoma | 786-0 renal | A498 renal | NCI-H23 lung | HOP-92 NSCLC | SN12C renal | HOP-18 NSCLC | EKVX NSCLC

— PubChem BioAssay (NCI)
